Patent US9587005B2 (priority 2010, dated 2017)
Read-outs that look alike come from different tables or passages of the source. Blank lines part the entries; values can stand above or below the compound they belong to. *1 amine or outer side, *2 acyl side, *3 side chain or, on linkers, in order; H or OH if unused. Where a SMILES comes first, the peptide text is derived from it. Where no end group is shown, it is not given here. Side-chain parts run from the residue outwards. [ ]: non-standard residue; d: D form. The star is where a group is joined. γGlu = O=C(O)[C@H](CCC(=O)[*:2])N[*:1]; X6 = CCCCCCCCCCCCCCCCC(CC(=O)*)C(=O)O; Palmitoyl = CCCCCCCCCCCCCCCC(=O)*; Aib = CC(C)(N)C(=O)O

Key:
Format in all cases: cell-based
GLP-1 receptor = molecular target: T1, GLP-1 receptor (Homo sapiens, UniProt P43220); assay: cAMP induction, firefly luciferase reporter assay in HEK293 cells co-transfected with GLP-1 receptor
T1 construct: expressed in transfected cells; host or cells: HEK293
T1 sequence (P43220 24-463): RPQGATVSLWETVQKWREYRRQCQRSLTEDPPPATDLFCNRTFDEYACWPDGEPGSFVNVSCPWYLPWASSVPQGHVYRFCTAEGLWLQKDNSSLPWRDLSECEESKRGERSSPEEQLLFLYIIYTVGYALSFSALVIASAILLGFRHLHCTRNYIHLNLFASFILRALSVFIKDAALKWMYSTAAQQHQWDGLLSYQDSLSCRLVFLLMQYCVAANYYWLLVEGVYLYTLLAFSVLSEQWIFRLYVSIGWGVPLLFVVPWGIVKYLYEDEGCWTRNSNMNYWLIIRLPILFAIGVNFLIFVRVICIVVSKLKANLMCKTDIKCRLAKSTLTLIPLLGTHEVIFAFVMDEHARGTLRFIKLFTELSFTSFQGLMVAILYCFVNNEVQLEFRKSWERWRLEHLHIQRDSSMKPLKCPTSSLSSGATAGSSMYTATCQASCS
From the text: (§1) This example describes an exemplary method of testing the biological activity of the peptides of the present disclosures, which method involves assaying cAMP synthesis.

GIP receptor = molecular target: T2, GIP receptor (Homo sapiens, UniProt P48546); assay: cAMP induction, firefly luciferase reporter assay in HEK293 cells co-transfected with GIP receptor
T2 sequence (P48546 22-466): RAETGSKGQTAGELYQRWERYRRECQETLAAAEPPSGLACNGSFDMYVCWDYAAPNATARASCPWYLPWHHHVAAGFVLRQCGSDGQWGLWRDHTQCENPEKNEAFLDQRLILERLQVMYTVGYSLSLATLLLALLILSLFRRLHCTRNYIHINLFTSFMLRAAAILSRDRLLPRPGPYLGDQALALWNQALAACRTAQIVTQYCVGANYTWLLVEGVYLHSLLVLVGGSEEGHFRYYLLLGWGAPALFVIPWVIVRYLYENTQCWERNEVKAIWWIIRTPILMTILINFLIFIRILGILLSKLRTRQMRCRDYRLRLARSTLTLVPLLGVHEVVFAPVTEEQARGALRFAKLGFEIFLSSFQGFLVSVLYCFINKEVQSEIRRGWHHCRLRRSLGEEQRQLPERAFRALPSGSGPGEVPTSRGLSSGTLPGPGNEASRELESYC

glucagon receptor = molecular target: T3, glucagon receptor (Homo sapiens, UniProt P47871); assay: cAMP induction, firefly luciferase reporter assay in HEK293 cells co-transfected with glucagon receptor
T3 construct: expressed in transfected cells; host or cells: HEK293
T3 sequence (P47871 26-477): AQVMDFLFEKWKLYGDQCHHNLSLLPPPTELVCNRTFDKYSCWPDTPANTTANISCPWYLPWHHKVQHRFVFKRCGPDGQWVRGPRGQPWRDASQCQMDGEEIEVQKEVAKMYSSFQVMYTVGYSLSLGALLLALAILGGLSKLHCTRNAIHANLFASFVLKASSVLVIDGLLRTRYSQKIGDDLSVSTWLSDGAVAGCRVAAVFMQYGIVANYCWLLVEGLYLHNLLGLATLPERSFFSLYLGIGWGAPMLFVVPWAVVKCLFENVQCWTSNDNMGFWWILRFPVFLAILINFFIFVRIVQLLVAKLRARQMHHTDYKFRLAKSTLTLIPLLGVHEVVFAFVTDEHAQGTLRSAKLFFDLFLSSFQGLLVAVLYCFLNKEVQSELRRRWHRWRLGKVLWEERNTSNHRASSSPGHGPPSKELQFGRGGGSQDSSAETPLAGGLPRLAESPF
From the text: as §1

[1] = EC50 (nM) at GLP-1 Receptor, Table 4, Example 9, composite of multiple different activity assays
[2] = EC50 (nM) at Glucagon Receptor, Table 4, Example 9, composite of multiple different activity assays

Compound: H[Aib]QGTFTSDYSKYLDERAAQDFVQWLLDGGPSSGAPPPSK(X6)G-NH2 [SEQ ID NO: 156]
EC50 (GLP-1 receptor; GLP-1 Receptor EC50, Table 11, Example 18): 0.003 nM
EC50 (GIP receptor; GIP Receptor EC50, Table 11, Example 18): 6 pM
EC50 (glucagon receptor): 0.003 nM

Compound: CCCCCCCCCCCCCCCCC(CC(=O)Nc1ccc(C[C@H](NC(=O)[C@H](CC(=O)O)NC(=O)[C@H](CO)NC(=O)[C@@H](NC(=O)[C@H](Cc2ccccc2)NC(=O)[C@@H](NC(=O)CNC(=O)[C@H](CCC(N)=O)NC(=O)C(C)(C)NC(=O)[C@@H](N)Cc2c[nH]cn2)[C@@H](C)O)[C@@H](C)O)C(=O)N[C@@H](CO)C(=O)N[C@@H](CCCCN)C(=O)N[C@@H](Cc2ccc(O)cc2)C(=O)N[C@@H](CC(C)C)C(=O)N[C@@H](CC(=O)O)C(=O)N[C@@H](CCC(=O)O)C(=O)N[C@@H](CCCNC(=N)N)C(=O)N[C@@H](C)C(=O)N[C@@H](C)C(=O)N[C@@H](CCC(N)=O)C(=O)N[C@@H](CC(=O)O)C(=O)N[C@@H](Cc2ccccc2)C(=O)N[C@H](C(=O)N[C@@H](CCC(N)=O)C(=O)N[C@@H](Cc2c[nH]c3ccccc23)C(=O)N[C@@H](CC(C)C)C(=O)N[C@@H](CC(C)C)C(=O)N[C@@H](CC(=O)O)C(=O)NCC(=O)NCC(=O)N2CCC[C@H]2C(=O)N[C@@H](CO)C(=O)N[C@@H](CO)C(=O)NCC(=O)N[C@@H](C)C(=O)N2CCC[C@H]2C(=O)N2CCC[C@H]2C(=O)N2CCC[C@H]2C(=O)N[C@@H](CO)C(N)=O)C(C)C)cc1)C(=O)O (stereo partly shown) [SEQ ID NO: 150]
EC50 (GLP-1 receptor): 0.004 nM
EC50 (GIP receptor): 141 pM
EC50 (glucagon receptor): 0.006 nM

Compound: CCCCCCCCCCCCCCCC(=O)N[C@@H](CCC(=O)NCCCC[C@H](NC(=O)[C@H](CC(=O)O)NC(=O)[C@H](CC(C)C)NC(=O)[C@H](Cc1ccc(O)cc1)NC(=O)[C@H](CCCCN)NC(=O)[C@H](CO)NC(=O)[C@H](Cc1ccc(O)cc1)NC(=O)[C@H](CC(=O)O)NC(=O)[C@H](CO)NC(=O)[C@@H](NC(=O)[C@H](Cc1ccccc1)NC(=O)[C@@H](NC(=O)CNC(=O)[C@H](CCC(N)=O)NC(=O)C(C)(C)NC(=O)[C@@H](N)Cc1c[nH]cn1)[C@@H](C)O)[C@@H](C)O)C(=O)N[C@@H](CCCNC(=N)N)C(=O)N[C@@H](C)C(=O)N[C@@H](C)C(=O)N[C@@H](CCC(N)=O)C(=O)N[C@@H](CC(=O)O)C(=O)N[C@@H](Cc1ccccc1)C(=O)N[C@H](C(=O)N[C@@H](CCC(N)=O)C(=O)N[C@@H](Cc1c[nH]c2ccccc12)C(=O)N[C@@H](CC(C)C)C(=O)N[C@@H](CC(C)C)C(=O)N[C@@H](CC(=O)O)C(=O)NCC(=O)NCC(=O)N1CCC[C@H]1C(=O)N[C@@H](CO)C(=O)N[C@@H](CO)C(=O)NCC(=O)N[C@@H](C)C(=O)N1CCC[C@H]1C(=O)N1CCC[C@H]1C(=O)N1CCC[C@H]1C(=O)N[C@@H](CO)C(N)=O)C(C)C)C(=O)O [SEQ ID NO: 153] (H-H[Aib]QGTFTSDYSKYLDK([γGlu-Palmitoyl])RAAQDFVQWLLDGGPSSGAPPPS-NH2; N-terminus assumed)
EC50 (GLP-1 receptor; GLP-1 Receptor EC50, Table 10, Example 16): 0.007 nM
EC50 (GIP receptor; Table 10, Example 16, read-out: GIP-1 Receptor EC50): 276 pM
EC50 (glucagon receptor; Glucagon Receptor EC50, Table 10, Example 16): 0.012 nM

Compound: CCCCCCCCCCCCCCCC(=O)N[C@@H](CCC(=O)NCCCC[C@H](NC(=O)[C@H](CC(=O)O)NC(=O)[C@H](CO)NC(=O)[C@@H](NC(=O)[C@H](Cc1ccccc1)NC(=O)[C@@H](NC(=O)CNC(=O)[C@H](CCC(N)=O)NC(=O)[C@@H](CO)NC(=O)C(C)(C)c1c[nH]cn1)[C@@H](C)O)[C@@H](C)O)C(=O)N[C@@H](CO)C(=O)N[C@@H](CCCCN)C(=O)N[C@@H](Cc1ccc(O)cc1)C(=O)N[C@@H](CC(C)C)C(=O)N[C@@H](CC(=O)O)C(=O)N[C@@H](CCC(=O)O)C(=O)N[C@@H](CCCNC(=N)N)C(=O)N[C@@H](C)C(=O)N[C@@H](C)C(=O)N[C@@H](CCC(N)=O)C(=O)N[C@@H](CC(=O)O)C(=O)N[C@@H](Cc1ccccc1)C(=O)N[C@H](C(=O)N[C@@H](CCC(N)=O)C(=O)N[C@@H](Cc1c[nH]c2ccccc12)C(=O)N[C@@H](CC(C)C)C(=O)N[C@@H](CC(C)C)C(=O)N[C@@H](CC(=O)O)C(=O)N[C@H](C(N)=O)[C@@H](C)O)C(C)C)C(=O)O [compound 32]
EC50 (GLP-1 receptor): 0.003 nM
EC50 (glucagon receptor; Table 4, Example 9, composite of multiple different activity assays): 0.004 nM

EC50 (GLP-1 receptor; [1]): 0.003 nM
EC50 (glucagon receptor; [2]): 0.007 nM
Compound: CCCCCCCCCCCCCCCC(=O)N[C@@H](CCC(=O)NCCCC[C@H](NC(=O)[C@H](CC(=O)O)NC(=O)[C@H](CO)NC(=O)[C@@H](NC(=O)[C@H](Cc1ccccc1)NC(=O)[C@@H](NC(=O)CNC(=O)[C@H](CCC(N)=O)NC(=O)C(C)(C)NC(=O)[C@@H](N)Cc1cnc[nH]1)[C@@H](C)O)[C@@H](C)O)C(=O)N[C@@H](CO)C(=O)N[C@@H](CCCCN)C(=O)N[C@@H](Cc1ccc(O)cc1)C(=O)N[C@@H](CC(C)C)C(=O)N[C@@H](CC(=O)O)C(=O)N[C@@H](CCC(=O)O)C(=O)N[C@@H](CCCNC(=N)N)C(=O)N[C@@H](C)C(=O)N[C@@H](C)C(=O)N[C@@H](CCC(N)=O)C(=O)N[C@@H](CC(=O)O)C(=O)N[C@@H](Cc1ccccc1)C(=O)N[C@H](C(=O)N[C@@H](CCC(N)=O)C(=O)N[C@@H](Cc1c[nH]c2ccccc12)C(=O)N[C@@H](CC(C)C)C(=O)N[C@@H](CC(C)C)C(=O)N[C@@H](CC(=O)O)C(=O)NCC(=O)N[C@@H](CCCNC(=N)N)C(=O)NCC(N)=O)C(C)C)C(=O)O [compound 29]

EC50 (GLP-1 receptor; [1]): 0.0031 nM
EC50 (glucagon receptor; [2]): 0.008 nM
Compound: CCCCCCCCCCCCCCCC(=O)N[C@@H](CCC(=O)NCCCC[C@H](NC(=O)[C@H](CC(=O)O)NC(=O)[C@H](CO)NC(=O)[C@@H](NC(=O)[C@H](Cc1ccccc1)NC(=O)[C@@H](NC(=O)CNC(=O)[C@H](CCC(N)=O)NC(=O)[C@@H](CO)NC(=O)[C@@H](N)Cc1c[nH]cn1)[C@@H](C)O)[C@@H](C)O)C(=O)N[C@@H](CO)C(=O)N[C@@H](CCCCN)C(=O)N[C@@H](Cc1ccc(O)cc1)C(=O)N[C@@H](CC(C)C)C(=O)N[C@@H](CC(=O)O)C(=O)N[C@@H](CCC(=O)O)C(=O)N[C@@H](CCCNC(=N)N)C(=O)N[C@@H](CCCNC(=N)N)C(=O)N[C@@H](C)C(=O)NC(C)(C)C(=O)N[C@@H](CCC(=O)O)C(=O)N[C@@H](Cc1ccccc1)C(=O)N[C@H](C(=O)N[C@@H](CCC(N)=O)C(=O)N[C@@H](Cc1c[nH]c2ccccc12)C(=O)N[C@@H](CC(C)C)C(=O)N[C@@H](CC(C)C)C(=O)N[C@@H](CC(=O)O)C(=O)N[C@H](C(N)=O)[C@@H](C)O)C(C)C)C(=O)O [compound 30] (H-H[dS]QGTFTSDK([γGlu-Palmitoyl])SKYLDERRA[Aib]EFVQWLLDT-NH2; N-terminus assumed)

Compound: CCCCCCCCCCCCCCCC(=O)N[C@@H](CCC(=O)NCCCC[C@H](NC(=O)[C@H](CC(=O)O)NC(=O)[C@H](CO)NC(=O)[C@@H](NC(=O)[C@H](Cc1ccccc1)NC(=O)[C@@H](NC(=O)CNC(=O)[C@H](CCC(N)=O)NC(=O)[C@@H](CO)NC(=O)[C@@H](N)Cc1c[nH]cn1)[C@@H](C)O)[C@@H](C)O)C(=O)N[C@@H](CO)C(=O)N[C@@H](CCCCN)C(=O)N[C@@H](Cc1ccc(O)cc1)C(=O)N[C@@H](CC(C)C)C(=O)N[C@@H](CC(=O)O)C(=O)N[C@@H](CCC(=O)O)C(=O)N[C@@H](CCCNC(=N)N)C(=O)N[C@@H](C)C(=O)N[C@@H](C)C(=O)N[C@@H](CCC(N)=O)C(=O)N[C@@H](CC(=O)O)C(=O)N[C@@H](Cc1ccccc1)C(=O)N[C@H](C(=O)N[C@@H](CCC(N)=O)C(=O)N[C@@H](Cc1c[nH]c2ccccc12)C(=O)N[C@@H](CC(C)C)C(=O)N[C@@H](CC(C)C)C(=O)N[C@@H](CC(=O)O)C(=O)NCC(=O)NCC(=O)N1CCC[C@H]1C(=O)N[C@@H](CO)C(=O)N[C@@H](CO)C(=O)NCC(=O)N[C@@H](C)C(=O)N1CCC[C@H]1C(=O)N1CCC[C@H]1C(=O)N1CCC[C@H]1C(=O)N[C@@H](CO)C(N)=O)C(C)C)C(=O)O [compound 27]
EC50 (GLP-1 receptor; [1]): 0.002 nM
EC50 (glucagon receptor; [2]): 0.003 nM

Compound: CCCCCCCCCCCCCCCC(=O)N[C@@H](CCC(=O)N[C@@H](CCC(=O)NCCCC[C@H](NC(=O)[C@H](CC(=O)O)NC(=O)[C@H](CO)NC(=O)[C@@H](NC(=O)[C@H](Cc1ccccc1)NC(=O)[C@@H](NC(=O)CNC(=O)[C@H](CCC(N)=O)NC(=O)C(C)(C)NC(=O)[C@@H](N)Cc1c[nH]cn1)[C@@H](C)O)[C@@H](C)O)C(=O)N[C@@H](CO)C(=O)N[C@@H](CCCCN)C(=O)N[C@@H](Cc1ccc(O)cc1)C(=O)N[C@@H](CC(C)C)C(=O)N[C@@H](CC(=O)O)C(=O)NC(C)(C)C(=O)N[C@@H](CCCNC(=N)N)C(=O)N[C@@H](C)C(=O)N[C@@H](C)C(=O)N[C@@H](CCC(N)=O)C(=O)N[C@@H](CC(=O)O)C(=O)N[C@@H](Cc1ccccc1)C(=O)N[C@H](C(=O)N[C@@H](CCC(N)=O)C(=O)N[C@@H](Cc1c[nH]c2ccccc12)C(=O)N[C@@H](CC(C)C)C(=O)N[C@@H](CCSC)C(=O)N[C@@H](CC(=O)O)C(=O)NCC(=O)NCC(=O)N1CCC[C@H]1C(=O)N[C@@H](CO)C(=O)N[C@@H](CO)C(=O)NCC(=O)N[C@@H](C)C(=O)N1CCC[C@H]1C(=O)N1CCC[C@H]1C(=O)N1CCC[C@H]1C(=O)N[C@@H](CO)C(N)=O)C(C)C)C(=O)O)C(=O)O [compound 33] (H-H[Aib]QGTFTSDK([γGlu-γGlu-Palmitoyl])SKYLD[Aib]RAAQDFVQWLMDGGPSSGAPPPS-NH2)
EC50 (GLP-1 receptor; [1]): 0.004 nM
EC50 (glucagon receptor; [2]): 0.005 nM
